Results: patent US20260272897A1 (Bayer Aktiengesellschaft, priority 2024, published 2026)
Read-outs that look alike come from different tables or passages of the source.

Tests used:
[1] = in vivo; cited from earlier work
[2] = test system: patients with heart failure and a left ventricular ejection fraction ≥40%; type: in vivo

CCOc1ncc(C)c2c1[C@H](c1ccc(C#N)cc1OC)C(C(N)=O)=C(C)N2 [finerenone, (4S)-4-(4-cyano-2-methoxyphenyl)-5-ethoxy-2,8-dimethyl-1,4-dihydro-1,6-naphthyridine-3-carboxamide]
active metabolites [1]: no active metabolites
Total worsening HF events: Event rate per 100 PY ([2]; bilirubin Tertile 2 0.5-0.6 mg/dL): 9.7 per 100 PY
Total worsening HF events: Event rate per 100 PY ([2]; bilirubin Tertile 3 ≥0.7 mg/dL): 12.6 per 100 PY
primary events (total worsening heart failure events and cardiovascular death), number of events ([2]; finerenone group, median 32 months): 1,083
